Reference: patent US10028961B2, “Therapeutically active compounds and their methods of use” (AGIOS PHARMACEUTICALS, INC., priority 2013, dated 2018)

Target: IDH1 wt/IDH1 R132H heterodimer (Homo sapiens (Human), UniProt O75874, R132H)
Assay: In vitro assay for IDH1m R132H inhibitors, IDH1 wt/IDH1 R132H heterodimer, NADPH depletion (diaphorase/resazurin)
Type: biochemical
Conditions: IDH1 wt/R132H heterodimer, NADPH/NADP, not saturated; for IC50: read-out: IDH1 wt/R132H NADPH/NADP IC50 not saturated
Description: The following describes the experimental procedures that can be used to obtain data on columns 2 and 4 of Table 4 and column 2 of Table 5.
In the primary reaction, the reduction of α-KG acid to 2-HG is accompanied by a concomitant oxidation of NADPH to NADP. The amount of NADPH remaining at the end of the reaction time is measured in a secondary diaphorase/resazurin reaction in which the NADPH is consumed in a 1:1 molar ratio with the conversion of resazurin to the highly fluorescent resorufin.
The mixture of compound, enzyme, and cofactor is pre-incubated at room temperature for 1 hr prior to the addition of alpha-ketoglutarate. To perform the secondary reaction, 10 uL of 1× buffer containing 36 μg/ml diaphorase and […] resazurin is added to the primary reaction and incubated for a further 5 minutes at 25° C. […] Compounds or compound dilutions are prepared in 100% DMSO concentration and diluted 1:50 into the final reaction. […] IC50s are determined.
IDH1 or IDH2 wildtype (wt) and mutant heterodimers are expressed and purified by methods known in the art. […] Co-expression of IDH1wt-his and IDH1R132C-flag is carried out in sf9 insect cells. Cells (25 g) are resuspended in 250 ml of 50 mM Tirs, 500 mM NaCl, pH7.4, at 4° C. with stirring. Cells are disrupted with 4 passes through an M-Y110 Micro fluidizer (Microfluidics) set to 500 psi, and then centrifuged at 22,000 rcf for 20 min at 4° C. The supernatant is harvested and loaded at 15 cm/h on a Histrap FF 5*1 ml column (GE) which is equilibrated with 50 mM Tirs, 500 mM NaCl, pH7.4. Host cell contaminants are removed by washing the column with equilibration buffer followed by equilibration buffer containing 20 mM imidazole and 60 mM imidazole to baseline. IDH1wt-his homodimer and IDH1wt-his/IDH1R132C-flag are eluted by equilibration buffer containing 250 mM imidazole. Fractions eluted by 250 mM imidazole are pooled together and loaded at 15 cm/h onto a column pre-packed with 10 ml ANTI-FLAG® M2 Affinity Gel (Sigma), the column is equilibrated with 50 mM Tris, 500 mM NaCl, pH7.4. After washing with equilibration buffer, IDH1wt-his/IDH1R132C-flag heterodimer is eluted by equilibration buffer containing flag peptide (0.2 mg/ml). Aliquots of IDH1wt-his/IDH1R132C-flag are flash frozen in liquid N2 and stored at −80° C. Same conditions are used for the purification of IDH1wt-his/IDH1R132H-flag.

Sequence of IDH1 wt/IDH1 R132H heterodimer (O75874 whole entry R132H): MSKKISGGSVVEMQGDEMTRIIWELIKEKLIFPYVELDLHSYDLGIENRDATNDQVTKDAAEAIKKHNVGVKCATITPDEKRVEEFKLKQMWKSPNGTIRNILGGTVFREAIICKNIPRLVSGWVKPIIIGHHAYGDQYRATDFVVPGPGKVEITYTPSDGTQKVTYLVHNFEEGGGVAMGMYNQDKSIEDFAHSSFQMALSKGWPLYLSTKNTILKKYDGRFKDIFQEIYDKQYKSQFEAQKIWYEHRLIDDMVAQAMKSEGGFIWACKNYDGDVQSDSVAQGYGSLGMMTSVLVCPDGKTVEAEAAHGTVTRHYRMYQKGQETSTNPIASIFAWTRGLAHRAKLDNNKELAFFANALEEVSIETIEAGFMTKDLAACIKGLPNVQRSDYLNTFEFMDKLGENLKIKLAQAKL
Sequence of IDH1 wt/IDH1 R132H heterodimer (O75874 whole entry, stated change not applied): as the sequence (O75874 whole entry R132H) above, with H132R counted along it

C[C@@H](Nc1nc(N[C@H](C)C2CC2)nc(-c2ccncc2)n1)C1CC1 [Compound 95] was tested. Which IC50 did it give?
The IC50 was > 1 µM.

COC(=O)c1cccc(-c2nc(N[C@H](C)C3CC3)nc(N[C@H](C)C3CC3)n2)n1 [Compound 310] was tested. Which IC50 did it give?
Its IC50 is > 1 µM.

Which IC50 does the source give for C[C@@H](Nc1nc(NCC(C)(C)C(N)=O)nc(-c2cccc(C(F)(F)F)n2)n1)C1CC1 [Compound 303] here?
The IC50 was > 1 µM.

Cc1cnn(-c2nc(N[C@H](C)C3CC3)nc(N[C@H](C)C3CC3)n2)c1 [Compound 312] was tested. Which IC50 did it give?
The IC50 was > 1 µM.

For C[C@@H](Nc1nc(N[C@H](C)C2CC2)nc(-c2ccnc(C(F)(F)F)c2)n1)C1CC1 [Compound 323], which IC50 is on record?
The IC50 was > 1 µM.

Which IC50 does the source give for FC1(F)CCC(Nc2nc(Nc3cc4ccccc4[nH]3)nc(-c3cccc(C(F)(F)F)n3)n2)C1 (stereo not shown) [Compound 291] here?
The IC50 was 0.1 to 1 µM.

FC1(F)CCC(Nc2nc(NC3CCC(F)(F)CC3)nc(-c3ccn[nH]3)n2)CC1 [Compound 330] was tested. Which IC50 did it give?
The IC50 was > 1 µM.

Cn1ccc(-c2nc(NC3CCC(F)(F)CC3)nc(NC3CCC(F)(F)CC3)n2)n1 [Compound 304] was tested. Which IC50 did it give?
Its IC50 is > 1 µM.

For C[C@@H](Nc1nc(N[C@H](C)C2CC2)nc(-c2cccc(C#N)n2)n1)C1CC1 [Compound 269], which IC50 is on record?
Its IC50 is 0.1 to 1 µM.

With COCC(COC)Nc1nc(N[C@H](C)C2CC2)nc(-c2cccc(C(F)(F)F)n2)n1 [Compound 63] as the molecule, how does the IC50 read?
The IC50 was 0.05 to 0.1 µM.

Which IC50 does the source give for Cc1cc(-c2nc(NC3CCC(F)(F)CC3)nc(NC3CCC(F)(F)CC3)n2)no1 [Compound 329] here?
Its IC50 is > 1 µM.

With C[C@@H](Nc1nc(N[C@H](C)C2CC2)nc(-c2cccc(C#N)c2)n1)C1CC1 [Compound 320] as the molecule, how does the IC50 read?
Its IC50 is > 1 µM.

How did the IC50 turn out when COC(=O)CCNc1nc(N[C@H](C)C2CC2)nc(-c2cccc(C(F)(F)F)n2)n1 [Compound 286] was run?
The IC50 was 0.1 to 1 µM.

For C[C@@H](Nc1nc(N[C@H](C)C2CC2)nc(-c2cccc(Cl)c2)n1)C1CC1 [Compound 64], which IC50 is on record?
Its IC50 is 0.05 to 0.1 µM.

How did the “IDH1 wt/R132H NADPH/NADP IC50 not saturated” value turn out when C[C@@H](Nc1nc(N[C@H](C)C2CC2)nc(-c2ccc(Cl)cc2)n1)C1CC1 [Compound 65] was run?
Its value is “No Fit”.

For CC(CN1CCCCC1)Nc1nc(N[C@H](C)C2CC2)nc(-c2cccc(C(F)(F)F)n2)n1 (stereo partly shown) [Compound 331], which IC50 is on record?
The IC50 was > 1 µM.

Which IC50 does the source give for Cc1cccc(-c2nc(NC3CCC(F)(F)CC3)nc(NC3CCC(F)(F)CC3)n2)n1 [Compound 282] here?
Its IC50 is 0.1 to 1 µM.

How did the IC50 turn out when C[C@@H](Nc1nc(N[C@H](C)C2CC2)nc(-c2cccc(C(N)=O)n2)n1)C1CC1 [Compound 307] was run?
Its IC50 is > 1 µM.

How did the IC50 turn out when CN1CCC(Nc2nc(NC3CCC(F)(F)C3)nc(-c3cccc(C(F)(F)F)n3)n2)C1 (stereo not shown) [Compound 96] was run?
Its IC50 is > 1 µM.

For C#CCNc1nc(N[C@H](C)C2CC2)nc(-c2cccc(C(F)(F)F)n2)n1 [Compound 284], which IC50 is on record?
Its IC50 is 0.1 to 1 µM.

With COC(=O)N1CCC(Nc2nc(NC3CCC(F)(F)C3)nc(-c3cccc(C(F)(F)F)n3)n2)C1 (stereo not shown) [Compound 59] as the molecule, how does the IC50 read?
Its IC50 is < 0.05 µM.

How did the IC50 turn out when CC(C)Nc1nc(NC2CCCCC2)nc(-c2ccncc2)n1 [Compound 62] was run?
The IC50 was 0.05 to 0.1 µM.

For C[C@@H](Nc1nc(N[C@H](C)C2CC2)nc(-c2cncc(C(F)(F)F)c2)n1)C1CC1 [Compound 300], which IC50 is on record?
The IC50 was 0.1 to 1 µM.

FC1(F)CCC(Nc2nc(NC3CCC(F)(F)CC3)nc(-c3cc(Cl)ccn3)n2)CC1 [Compound 314] was tested. Which IC50 did it give?
Its IC50 is > 1 µM.

With C[C@@H](Nc1nc(N[C@H](C)C2CC2)nc(-c2ccccc2Cl)n1)C1CC1 [Compound 94] as the molecule, how does the IC50 read?
Its IC50 is > 1 µM.

For Fc1ccc([C@H]2C[C@H](Nc3nc(N[C@H]4C[C@H](c5ccc(F)cc5)C4)nc(-c4cccc(C(F)(F)F)n4)n3)C2)cc1 [Compound 299], which IC50 is on record?
Its IC50 is 0.1 to 1 µM.

How did the IC50 turn out when COCCOCC(C)Nc1nc(N[C@H](C)C2CC2)nc(-c2cccc(C(F)(F)F)n2)n1 (stereo partly shown) [Compound 295] was run?
The IC50 was 0.1 to 1 µM.

For C=Cc1cccc(-c2nc(N[C@H](C)C3CC3)nc(N[C@H](C)C3CC3)n2)n1 [Compound 240], which IC50 is on record?
The IC50 was < 0.05 µM.

For C[C@@H](Nc1nc(N[C@H](C)C2CC2)nc(-c2cccc(O)n2)n1)C1CC1 [Compound 327], which IC50 is on record?
The IC50 was > 1 µM.

How did the IC50 turn out when C[C@@H](Nc1nc(N[C@H](C)C2CC2)nc(-c2ccccn2)n1)C1CC1 [Compound 93] was run?
The IC50 was > 1 µM.

How did the IC50 turn out when CC(CN1CCOCC1)Nc1nc(N[C@H](C)C2CC2)nc(-c2cccc(C(F)(F)F)n2)n1 (stereo partly shown) [Compound 306] was run?
The IC50 was > 1 µM.
